In brackets after ≈: the same amount, converted by molar mass. *1 amine or outer side, *2 acyl side, *3 side chain or, on linkers, in order; H or OH if unused. Where a SMILES comes first, the peptide text is derived from it. [ ]: non-standard residue; d: D form. The star is where a group is joined. PEG11 = NCCOCCOCCOCCOCCOCCOCCOCCOCCOCCOCCOCCC(=O)O; X1 = CCCCCCCCCCCCCCCCC(=O)[C@H](CCC(N)=O)N*; β2hAla(2S) = C[C@@H](CN[*:1])C(=O)[*:2]; hLys = NCCCCC[C@H](N)C(=O)O; Nle = CCCC[C@H](N)C(=O)O; AEEA = NCCOCCOCC(=O)O
Tests used:
[1] = target: T1, Relaxin receptor 1 (Homo sapiens, UniProt Q9HBX9); assay: Agonist activity at RXFP1 endogenously expressed in human OVCAR-5 cells assessed as increase in IBMX-induced cAMP accumulation pretreated with IBMX for 40 mins followed by compound addition and measured after 30 mins by HTRF assay; type: functional, cell-based
T1 sequence (Q9HBX9 whole entry): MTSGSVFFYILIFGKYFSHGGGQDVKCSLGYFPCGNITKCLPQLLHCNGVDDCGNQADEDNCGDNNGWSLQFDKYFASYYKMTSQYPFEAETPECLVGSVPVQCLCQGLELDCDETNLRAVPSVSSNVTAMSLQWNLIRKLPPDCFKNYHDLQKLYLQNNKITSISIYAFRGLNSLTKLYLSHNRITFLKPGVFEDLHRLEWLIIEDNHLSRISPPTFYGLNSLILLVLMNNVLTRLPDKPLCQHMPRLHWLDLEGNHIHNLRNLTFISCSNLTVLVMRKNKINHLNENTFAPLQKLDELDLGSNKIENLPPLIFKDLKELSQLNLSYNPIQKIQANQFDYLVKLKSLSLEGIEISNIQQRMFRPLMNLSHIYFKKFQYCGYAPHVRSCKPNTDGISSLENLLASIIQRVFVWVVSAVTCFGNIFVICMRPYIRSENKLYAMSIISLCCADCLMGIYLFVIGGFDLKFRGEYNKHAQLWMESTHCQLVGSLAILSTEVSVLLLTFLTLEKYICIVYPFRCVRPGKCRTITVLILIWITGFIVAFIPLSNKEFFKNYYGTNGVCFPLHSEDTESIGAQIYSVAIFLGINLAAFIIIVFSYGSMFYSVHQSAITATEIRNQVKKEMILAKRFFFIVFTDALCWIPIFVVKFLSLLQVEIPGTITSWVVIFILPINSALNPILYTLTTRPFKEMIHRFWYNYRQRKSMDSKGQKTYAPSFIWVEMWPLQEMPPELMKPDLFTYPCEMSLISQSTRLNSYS

[2] = target: T2, Relaxin receptor 1 (Homo sapiens) (UniProt Q9HBX9); assay: Agonist activity at RXFP1 endogenously expressed in human OVCAR-5 cells assessed as increase in IBMX-induced cAMP accumulation pretreated with IBMX for 40 mins followed by compound addition and measured after 30 mins by HTRF assay relative to relaxin; type: functional, cell-based; settings: filed as agonist
T2 sequence (whole entry): T1 sequence (Q9HBX9 whole entry)

[3] = Half life in Sprague-Dawley rat at 1 mg/kg, iv measured upto 72 hrs by LC-HRMS analysis; type: ADME, organism-based; settings: in vivo
[4] = target: T1, Relaxin receptor 1; assay: Agonist activity at RXFP1 endogenously expressed in human OVCAR-5 cells assessed as increase in IBMX-induced cAMP accumulation pretreated with IBMX for 40 mins followed by compound addition and measured after 30 mins in presence of 2 % HSA by HTRF assay; type: functional, cell-based
[5] = target: T2, Relaxin receptor 1 (Homo sapiens); assay: Agonist activity at RXFP1 endogenously expressed in human OVCAR-5 cells assessed as increase in IBMX-induced cAMP accumulation pretreated with IBMX for 40 mins followed by compound addition and measured after 30 mins in presence of 2 % HSA by HTRF assay relative to control; type: functional, cell-based; settings: filed as agonist
[6] = target: T2, Relaxin receptor 1 (Homo sapiens); assay: Selectivity ratio of EC50 for agonist activity at RXFP1 endogenously expressed in human OVCAR-5 cells in presence of 2 % HSA to EC50 for agonist activity at RXFP1 endogenously expressed in human OVCAR-5 cells in absence of HSA; type: cell-based
[7] = Bioavailability in Sprague-Dawley rat at 3 mg/kg, sc measured upto 72 hrs by LC-HRMS analysis; type: ADME, organism-based; settings: in vivo
[8] = Stability in human blood assessed as parent compound at 5 uM remaining after 4 hrs; type: ADME, tissue-based; settings: read-out: Stabilty
[9] = Stability in rat blood assessed as parent compound at 5 uM remaining after 4 hrs; type: ADME, tissue-based; settings: read-out: Stabilty
[10] = target: T3, Relaxin receptor 1 (Rattus norvegicus, UniProt Q6R6I6); assay: Agonist activity at rat RXFP1 expressed in human […] cells assessed as increase in IBMX-induced cAMP accumulation pretreated with IBMX for 40 mins followed by compound addition and measured after 30 mins by HTRF assay; type: cell-based, HEK293
T3 sequence (Q6R6I6 whole entry): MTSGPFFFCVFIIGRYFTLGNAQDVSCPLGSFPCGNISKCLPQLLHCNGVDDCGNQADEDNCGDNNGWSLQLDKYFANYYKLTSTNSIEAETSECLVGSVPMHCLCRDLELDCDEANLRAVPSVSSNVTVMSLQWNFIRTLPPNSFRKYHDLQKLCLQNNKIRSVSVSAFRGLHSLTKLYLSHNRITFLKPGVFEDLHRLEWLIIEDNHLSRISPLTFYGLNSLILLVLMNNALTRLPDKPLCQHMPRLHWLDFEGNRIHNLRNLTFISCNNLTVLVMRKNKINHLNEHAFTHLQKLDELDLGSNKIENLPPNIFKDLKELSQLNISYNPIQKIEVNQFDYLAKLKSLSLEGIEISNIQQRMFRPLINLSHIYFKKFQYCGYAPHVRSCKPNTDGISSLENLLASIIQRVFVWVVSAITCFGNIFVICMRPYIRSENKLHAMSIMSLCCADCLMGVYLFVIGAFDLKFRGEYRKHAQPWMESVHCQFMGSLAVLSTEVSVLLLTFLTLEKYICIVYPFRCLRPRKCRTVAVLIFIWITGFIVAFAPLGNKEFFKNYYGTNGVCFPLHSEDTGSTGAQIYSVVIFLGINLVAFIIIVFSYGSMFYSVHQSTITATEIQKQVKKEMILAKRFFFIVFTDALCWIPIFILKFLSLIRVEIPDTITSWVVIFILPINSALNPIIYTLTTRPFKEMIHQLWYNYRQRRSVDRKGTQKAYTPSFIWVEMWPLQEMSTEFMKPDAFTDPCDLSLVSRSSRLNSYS

[11] = target: T4, Relaxin receptor 1 (Rattus norvegicus) (UniProt Q6R6I6); assay: Agonist activity at rat RXFP1 expressed in human […] cells assessed as increase in IBMX-induced cAMP accumulation pretreated with IBMX for 40 mins followed by compound addition and measured after 30 mins by HTRF assay relative to control; type: cell-based; settings: HEK293, filed as agonist
T4 sequence (whole entry): T3 sequence (Q6R6I6 whole entry)

[12] = target: T4, Relaxin receptor 1 (Rattus norvegicus); assay: Selectivity index, ratio of EC50 for agonist activity at rat RXFP1 expressed in human […] cells in presence of RSA by HTRF assay to EC50 for EC50 for agonist activity at rat RXFP1 expressed in human […] cells in absence of RSA by HTRF assay; type: cell-based; settings: HEK293, time 30.0 min
[13] = Positive chronotropic activity in pithed Sprague-Dawley rat assessed as increase in heart rate at 20 to 1000 mg/kg, iv administered as bolus dose measured after 60 mins post dose; type: ADME, organism-based; settings: in vivo, 1 h, dose 20-1000 mg/kg
[14] = Positive chronotropic activity in pithed Sprague-Dawley rat assessed as increase in heart rate at 1000 mg/kg, iv administered as bolus dose measured after 60 mins post dose; type: ADME, organism-based; settings: in vivo, 1 h
[15] = Stability in human plasma assessed as parent compound remaining level at 5 uM remaining after 4 hrs; type: ADME, cell-free; settings: read-out: Stabilty
[16] = Aqueous solubility of compound in acetate buffer at pH 4.5 measured after 24 hrs by UPLC analysis; type: physicochemical
[17] = Aqueous solubility of compound in phosphate buffer at pH 7.4 measured after 24 hrs by UPLC analysis; type: physicochemical
[18] = Stability in rat plasma assessed as parent compound remaining level at 5 uM remaining after 4 hrs; type: ADME, cell-free; settings: read-out: Stabilty
[19] = Positive chronotropic activity in pithed Sprague-Dawley rat assessed as increase in heart rate at 300 microg/kg, iv administered as bolus dose recorded over 60 mins relative to control; type: ADME, organism-based; settings: in vivo, 0.3 mg/kg, 1 h, dose 300 µg/kg

Row | EC50 [1] [nM] | Emax [2] [%] | half-life [3] [h] | EC50 [4] [nM] | Emax [5] [%] | Ratio EC50 [6] | bioavailability [7] [%] | remaining at 4 h, 5 µM [8] [%] | remaining at 4 h, 5 µM [9] [%] | EC50 [10] [nM] | Emax [11] [%] | Ratio EC50 [12] | remaining at 4 h, 5 µM [15] [%] | solubility at 24 h [16] [µg/mL] | solubility at 24 h [17] [µg/mL] | remaining at 4 h, 5 µM [18] [%] | SMILES | Activity [13] | Emin [14] [%] | Activity [19] [%]
1 | 1 | 80 | 5.7 | 87 | 96 | 87 | 47 | 87 | 79 | – | – | – | – | – | – | – | CCCCCCCCCCCCCCCCC(=O)[C@H](CCC(N)=O)NC(=O)[C@H](CCC(=O)O)NC(=O)[C@H](CCC(=O)O)NC(=O)[C@H](CCCCN)NC(=O)COCCOCCNC(=O)COCCOCCNC(=O)COCCOCCNC(=O)[C@H](CCCCCNC(C)=O)NC(=O)[C@H](CCCCN)NC(=O)[C@H](CCCCN)NC(=O)[C@H](CCCNC(=N)N)NC(=O)[C@@H](C)CNC(=O)[C@H](CO)NC(=O)[C@H](Cc1c[nH]c2ccccc12)NC(=O)[C@@H](NC(=O)[C@H](CO)NC(=O)[C@H](CCCCCNC(C)=O)NC(=O)[C@H](CCCCN)NC(=O)[C@H](CCCC)NC(=O)[C@H](CCSC)NC(=O)CNC(=O)[C@H](CCC(=O)O)NC(=O)[C@@H](C)CNC(=O)[C@@H](C)CNC(=O)[C@@H](NC(=O)[C@H](CCCCCNC(C)=O)NC(=O)[C@H](CCCCN)NC(=O)[C@H](C)NC(=O)[C@H](CCCNC(=N)N)NC(=O)[C@@H](NC(=O)[C@H](CCCCN)NC(=O)[C@H](CCC(=O)O)NC(=O)[C@H](CCCNC(=N)N)NC(=O)[C@H](CCC(=O)O)NC(=O)CNC(=O)[C@H](CCC(=O)O)NC(=O)[C@H](CC(C)C)NC(C)=O)C(C)C)[C@@H](C)CC)[C@@H](C)O (Ac-LEGEREKVRAK[hLys](Ac)I[β2hAla(2S)][β2hAla(2S)]EGM[Nle]K[hLys](Ac)STWS[β2hAla(2S)]RKK[hLys](Ac)[AEEA][AEEA][AEEA]KEE-X1) | – | – | –
2 | 3.6 | 88 | 8.9 | 270 | 88 | 75 | – | – | – | 0.9 | 79 | 33 | – | – | – | – | CCCCCCCCCCCCCCCCC(=O)[C@H](CCC(N)=O)NC(=O)[C@H](CCC(=O)O)NC(=O)[C@H](CCC(=O)O)NC(=O)[C@H](CCCCN)NC(=O)CCOCCOCCOCCOCCOCCOCCOCCOCCOCCOCCOCCNC(=O)[C@H](CCCCN)NC(=O)[C@H](CCCNC(=N)N)NC(=O)[C@@H](C)CNC(=O)[C@H](CO)NC(=O)[C@H](Cc1c[nH]c2ccccc12)NC(=O)[C@@H](NC(=O)[C@H](CO)NC(=O)[C@H](CCSC)NC(=O)CNC(=O)[C@H](CCC(=O)O)NC(=O)[C@@H](C)CNC(=O)[C@@H](C)CNC(=O)[C@@H](NC(=O)[C@H](CCC(N)=O)NC(=O)[C@H](C)NC(=O)[C@H](CCCNC(=N)N)NC(=O)[C@@H](NC(=O)[C@H](CCCCN)NC(=O)[C@H](CCC(=O)O)NC(=O)[C@H](CCCNC(=N)N)NC(=O)[C@H](CCC(=O)O)NC(=O)CNC(=O)[C@H](CCC(=O)O)NC(=O)[C@H](CC(C)C)NC(C)=O)C(C)C)[C@@H](C)CC)[C@@H](C)O (Ac-LEGEREKVRAQI[β2hAla(2S)][β2hAla(2S)]EGMSTWS[β2hAla(2S)]RK[PEG11]KEE-X1) | Dose-dependent effect | 30 | –
3 | 12 | 99 | 0.32 | – | – | – | – | – | – | 5.3 | 83 | – | 64 | 3300 (≈ 1190 µM) | 2900 (≈ 1050 µM) | 55 | CCCC[C@H](NC(=O)CNC(=O)[C@H](CCC(=O)O)NC(=O)[C@@H](C)CNC(=O)[C@@H](C)CNC(=O)[C@@H](NC(=O)[C@H](CCC(N)=O)NC(=O)[C@H](C)NC(=O)[C@H](CCCNC(=N)N)NC(=O)[C@@H](NC(=O)[C@H](CCCCN)NC(=O)[C@H](CCC(=O)O)NC(=O)[C@H](CCCNC(=N)N)NC(=O)CNC(=O)[C@H](CCC(=O)O)NC(=O)[C@H](CC(C)C)NC(C)=O)C(C)C)[C@@H](C)CC)C(=O)N[C@@H](CO)C(=O)N[C@H](C(=O)N[C@@H](Cc1c[nH]c2ccccc12)C(=O)N[C@@H](CO)C(=O)NC[C@H](C)C(=O)N[C@@H](CCCNC(=N)N)C(=O)N[C@@H](CCCCN)C(=O)N[C@@H](CCCCN)C(N)=O)[C@@H](C)O (Ac-LEGREKVRAQI[β2hAla(2S)][β2hAla(2S)]EG[Nle]STWS[β2hAla(2S)]RKK-NH2) | – | 43 | 40
